For one test, the target named is T1, aldose reductase (Rattus norvegicus, UniProt P07943).
T1 construct: their crystalline lenses were immediately removed and stored at -80° C; The lenses were homogenized; from tissue; host or cells: crystalline lens of six-week-old male SD rats (homogenate supernatant, dialysed)
Kind of test: Aldose Reductase Inhibition Test (Experiment 1). The class given is biochemical, rat (male SD rat crystalline lens). The settings on record: *Concentration of 10^-6 M; DL-glycerine aldehyde 10 mM, pH 6.2, 30° C., 5 min. The protocol:
Six-week-old male SD rats were killed under ether anesthesia and their crystalline lenses were immediately removed and stored at -80° C. The lenses were homogenized in 3 volumes of 135 mM sodium potassium phosphate buffer (pH: 7.0) and centrifuged at a rate of 30,000 rpm for 30 min. The supernatant was dialyzed overnight against 0.05M sodium chloride, to produce an aldose reductase solution. All operations were conducted at 4° C. The enzyme solution was stored at -80° C.
(§1) The activity of aldose reductase was determined according to a slight modification of the method of J. H. Kinoshita et al [J. Biol. Chem., 240, 877 (1965)]. Namely, 0.1 ml of DL-glycerine aldehyde (final concentration: 10 mM) was added to 0.9 ml of 100 mM sodium potassium phosphate buffer (pH 6.2) which contained lithium sulfate (final concentration: 400 mM), reduced nicotinamide adenine dinucleotide phosphate (final concentration: 0.15 mM), the enzyme solution, and the compound to be tested (final concentration: 5×10^-5 M or 10^-6 M), and then the reaction was conducted at 30° C. for 5 min. […] The maximum reducing rate of the absorbance (U) during the reaction was determined. By substracting, from this value, the maximum reducing rate (Uo) at 340 nm of the reaction solution before the addition of the substrate (DL-glycerine aldehyde), the reaction rate (V) (V=U-Uo) was calculated as a true reaction rate in the presence of the compound to be tested.
(§2) The same procedure was repeated except for the absence of the compound to be tested. A true reaction rate (Vo) in case the enzyme was not inhibited was calculated (Vo =U'-Uo '). The inhibitory activity of aldose reductase was determined by the following formula. [formula]
In turn, `O=C(O)Cn1nnnc1-c1ccc(Cl)c([N+](=O)[O-])c1` [Compound 3-2, 5-(3-Nitro-4-chlorophenyl)-1-tetrazoleacetic acid] came in with an inhibition at 1 µM of 84%.

Turning to `O=C(O)Cn1nnnc1-c1ccc(F)cc1` [Compound 3-3, 5-(4-Fluorophenyl)-1-tetrazoleacetic acid], testing at 1 µM gave an inhibition of 94%.

With `Cc1cccc(-c2nnnn2CC(=O)O)c1` [Compound 3-5, 5-(3-Methylphenyl)-1-tetrazoleacetic acid], at 1 µM the inhibition was 96%.

Regarding `COc1ccc(-c2nnnn2CC(=O)O)cc1` [Compound 3-7, 5-(4-Methoxyphenyl)-1-tetrazoleacetic acid], the inhibition at 1 µM came to 95%.

For the compound `O=C(O)Cn1nnnc1-c1ccc(Cl)cc1` [Compound 3-10, 5-(4-Chlorophenyl)-1-tetrazoleacetic acid], the inhibition at 1 µM amounted to 85%.

The compound `Cc1ccc(-c2nnnn2CC(=O)O)cc1[N+](=O)[O-]` [Compound 3-11, 5-(3-Nitro-4-methylphenyl)-1-tetrazoleacetic acid] yielded an inhibition at 1 µM of 92%.

For `O=C(O)Cn1nnnc1-c1ccc(-c2ccccc2)cc1` [Compound 3-23, 5-(4-Biphenylyl)-1-tetrazoleacetic acid], 1 µM produced 95% inhibition.

Regarding `CCCCCCCc1ccc(-c2nnnn2CC(=O)O)cc1` [Compound 3-24, 5-(4-n-Heptylphenyl)-1-tetrazoleacetic acid], the inhibition at 1 µM amounted to 96%.

Staying with this test, now noted: final concentration 5×10^-5 M (values without asterisk); DL-glycerine aldehyde 10 mM, pH 6.2, 30° C., 5 min.
`COC(=O)Cn1nnnc1-c1ccccc1` [Compound 1-1, methyl 5-phenyl-1-tetrazoleacetate] yielded an inhibition at 50 µM of 92%.

`CCCCOC(=O)Cn1nnnc1-c1ccccc1` [Compound 1-4, n-Butyl 5-phenyl-1-tetrazoleacetate] displayed an inhibition at 50 µM of 63%.

In the case of `COC(=O)Cn1nnnc1-c1cccc(C)c1` [Compound 1-6, Methyl 5-(3-methylphenyl)-1-tetrazoleacetate], the inhibition at 50 µM is 44%.

Consider `COC(=O)Cn1nnnc1-c1ccc(OC)cc1` [Compound 1-8, Methyl 5-(4-methoxyphenyl)-1-tetrazoleacetate], for which at 50 µM the inhibition was 43%.

`COC(=O)Cn1nnnc1-c1ccc(Cl)cc1` [Compound 2-1, Methyl 5-(4-chlorophenyl)-1-tetrazoleacetate] returned an inhibition at 50 µM of 31%.

As to `COC(=O)Cn1nnnc1-c1cccc([N+](=O)[O-])c1` [Compound 2-4, Methyl 5-(3-nitrophenyl)-1-tetrazoleacetate], the inhibition at 50 µM amounted to 30%.

With `COC(=O)Cn1nnnc1-c1ccc([N+](=O)[O-])cc1` [Compound 2-5, Methyl 5-(4-nitrophenyl)-1-tetrazoleacetate], the inhibition at 50 µM was determined as 44%.

`COC(=O)Cn1nnnc1-c1ccc(Cl)c([N+](=O)[O-])c1` [Compound 2-6, Methyl 5-(3-nitro-4-chlorophenyl)-1-tetrazoleacetate]: the inhibition at 50 µM is 42%.

Take `CCCCOC(=O)C(=O)Nc1cccc(-c2nnnn2CC(=O)OCC)c1` [Compound 2-8, Butyl 3'-(1-ethoxycarbonylmethyl-tetrazol-5-yl)oxanilate]: the inhibition at 50 µM was 52%.

In turn, `COC(=O)Cn1nnnc1-c1ccc(-c2nnnn2CC(=O)OC)cc1` [Compound 2-10, 1,4-Bis(1-methoxycarbonylmethyl-tetrazol-5-yl)benzene] displayed an inhibition at 50 µM of 36%.

In turn, `O=C(O)Cn1nnnc1-c1ccc(-c2nnnn2CC(=O)O)cc1` [Compound 3-13, 1,4-Bis(1-carboxymethyl-tetrazol-5-yl)benzene] had an inhibition at 50 µM of 94%.

The compound `O=C(O)CCn1nnnc1-c1ccccc1` [Compound 3-15, 3-(5-Phenyltetrazol-1-yl)propionic acid] yielded an inhibition at 50 µM of 80%.

The compound `O=C(O)CCCn1nnnc1-c1ccccc1` [Compound 3-16, 4-(5-Phenyltetrazol-1-yl)buatyric acid] had an inhibition at 50 µM of 79%.

Consider `O=C(O)CCCCn1nnnc1-c1ccccc1` [Compound 3-17, 5-(5-Phenyltetrazol-1-yl)valeric acid], for which the inhibition at 50 µM came to 68%.

Compound `CC(C(=O)O)n1nnnc1-c1ccccc1` (stereo not drawn) [Compound 3-18, 2-(5-Phenyltetrazol-1-yl)propionic acid] had an inhibition at 50 µM of 91%.

For the compound `CCCCOC(=O)C(=O)Nc1cccc(-c2nnn[nH]2)c1` [Compound 4-1, 5-(3-n-Butyloxalylaminophenyl)tetrazole], the inhibition at 50 µM was 58%.

Regarding `CCCCOC(=O)C(=O)Nc1ccccc1-c1nnn[nH]1` [Compound 4-2, 5-(2-n-Butyloxalylaminophenyl)tetrazole], the inhibition at 50 µM was found to be 69%.

The compound `CCOC(=O)C(=O)Nc1cc(-c2nnn[nH]2)cc(NC(=O)C(=O)OCC)c1Cl` [Compound 4-3, 5-(4-Chloro-3,5-diethyloxalylaminophenyl)tetrazole] gave an inhibition at 50 µM of 95%.

`CCCCOC(=O)C(=O)Nc1cc(-c2nnn[nH]2)cc(NC(=O)C(=O)OCCCC)c1Cl` [Compound 4-4, 5-(4-Chloro-3,5-di-n-butyloxalylaminophenyl)tetrazole] registered an inhibition at 50 µM of 92%.

Regarding `O=C(O)C(=O)Nc1cccc(-c2nnn[nH]2)c1` [Compound 5-1, 3-(1H-Tetrazol-5-yl)oxanilic acid], the inhibition at 50 µM is 63%.

For the next test, the target named is T1, aldose reductase. As to the kind of experiment: Aldose reductase inhibition, IC50 determination (Experiment 2). The settings on record: calculated from inhibitions at three final concentrations; DL-glycerine aldehyde 10 mM, pH 6.2, 30° C. The format is biochemical, rat (male SD rat crystalline lens). As for the experimental part:
Six-week-old male SD rats were killed under ether anesthesia and their crystalline lenses were immediately removed and stored at -80° C. […] The supernatant was dialyzed overnight against 0.05M sodium chloride, to produce an aldose reductase solution. All operations were conducted at 4° C. The enzyme solution was stored at -80° C.
as §1, with “Namely,” for “The activity of aldose reductase was determined according to a slight modification of the method of J. H. Kinoshita et al [J. Biol. Chem., 240, 877 (1965)]. Namely,”
as §2
In the same manner as Experiment 1, the inhibitions at final concentrations of 10^-6, 10^-7 and […] for the compound to be tested were calculated.
Regarding `O=C(O)Cn1nnnc1-c1ccc(F)cc1` [Compound 3-3, 5-(4-Fluorophenyl)-1-tetrazoleacetic acid], the IC50 is 42 nM.

Turning to `Cc1cccc(-c2nnnn2CC(=O)O)c1` [Compound 3-5, 5-(3-Methylphenyl)-1-tetrazoleacetic acid], the IC50 was 33 nM.

On to `COc1ccc(-c2nnnn2CC(=O)O)cc1` [Compound 3-7, 5-(4-Methoxyphenyl)-1-tetrazoleacetic acid], for which the IC50 is 48 nM.

`Cc1ccc(-c2nnnn2CC(=O)O)cc1[N+](=O)[O-]` [Compound 3-11, 5-(3-Nitro-4-methylphenyl)-1-tetrazoleacetic acid]: the IC50 was 42 nM.

Regarding `O=C(O)Cn1nnnc1-c1ccc(-c2nnnn2CC(=O)O)cc1` [Compound 3-13, 1,4-Bis(1-carboxymethyl-tetrazol-5-yl)benzene], the IC50 is 27 nM.

For the compound `CCCCc1ccc(-c2nnnn2CC(=O)O)cc1` [Compound 3-14, 5-(4-n-Butylphenyl)-1-tetrazoleacetic acid], the IC50 was 17 nM.

Regarding `O=C(O)Cn1nnnc1-c1ccc(-c2ccccc2)cc1` [Compound 3-23, 5-(4-Biphenylyl)-1-tetrazoleacetic acid], the IC50 was 22 nM.

For `CCCCCCCc1ccc(-c2nnnn2CC(=O)O)cc1` [Compound 3-24, 5-(4-n-Heptylphenyl)-1-tetrazoleacetic acid], the IC50 was 17 nM.

Turning to `O=C(O)Cn1nnnc1-c1ccc(O)cc1` [Compound 3-31, 5-(4-Hydroxyphenyl)-1-tetrazoleacetic acid], the IC50 was 43 nM.

As to `CCCCCCCOc1ccc(-c2nnnn2CC(=O)O)cc1` [Compound 3-32, 5-(4-n-Heptoxyphenyl)-1-tetrazoleacetic acid], the IC50 is 29 nM.

On to `COc1cccc(-c2nnnn2CC(=O)O)c1` [Compound 3-33, 5-(3-Methoxyphenyl)-1-tetrazoteacetic acid], for which the IC50 is 28 nM.

Consider `COc1ccc(-c2nnnn2CC(=O)O)cc1OC` [Compound 3-34, 5-(3,4-Dimethoxyphenyl)-1-tetrazoleacetic acid], for which the half-inhibitory concentration (IC50) was 63 nM.

With `CCCCOc1ccc(-c2nnnn2CC(=O)O)cc1OCCCC` [Compound 3-35, 5-(3,4-Di-n-butoxyphenyl)-1-tetrazoleacetic acid], the concentration for half-maximal inhibition (IC50) is 33 nM.

`O=C(O)Cn1nnnc1-c1ccc(C(=O)O)cc1` [Compound 3-37, 5-(4-Carboxyphenyl)-1-tetrazoleacetic acid]: the IC50 was 82 nM.

For the compound `O=C(O)Cn1nnnc1-c1ccc(C(=O)N2CCCCC2)cc1` [Compound 3-38, 5-(4-Piperidinocarbonylphenyl)-1-tetrazoleacetic acid], the IC50 is 54 nM.

On to `CCCN(CCC)C(=O)c1ccc(-c2nnnn2CC(=O)O)cc1` [Compound 3-39, 5-(4-Di-n-propylaminocarbonylphenyl)-1-tetrazoleacetic acid], for which the IC50 is 73 nM.

Turning to `Nc1ccc(-c2nnnn2CC(=O)O)cc1` [Compound 3-40, 5-(4-Aminophenyl)-1-tetrazoleacetic acid], the IC50 was 41 nM.

For `O=C(O)Cn1nnnc1-c1ccc(CBr)cc1` [Compound 3-41, 5-(4-Bromomethylphenyl)-1-tetrazoleacetic acid], the IC50 was 20 nM.

In the case of `CSc1ccc(-c2nnnn2CC(=O)O)cc1` [Compound 3-42, 5-(4-Methylthiophenyl)-1-tetrazoleacetic acid], the IC50 was 37 nM.

Regarding `CCCCNS(=O)(=O)c1ccc(-c2nnnn2CC(=O)O)cc1` [Compound 3-45, 5-(4-n-Butylaminosulfonylphenyl)-1-tetrazoleacetic acid], the IC50 is 78 nM.

The values above are taken from USRE35281E, “Tetrazole derivatives and aldose reductase inhibition therewith” (Wakamoto Pharmaceutical Co., Ltd., priority 1989, dated 1996).
